Our source for the logP and logD values is the SangsterLogP compilation.

Test in one data set: not given
Settings: not given
Take `CCC1OC(=O)CC(O)C(C)C(O[C@H]2OC(C)C(O)C(N(C)C)C2O)C(CCN2CC(C)CC(C)C2)CC(C)C(=O)C=CC(C)=CC1COC1OC(C)C(O)C(OC)C1OC` (some centres undefined): the log partition coefficient (logP) was 3.8. `CO[C@H]1C[C@H](O[C@H]2[C@H](C)[C@@H](O[C@@H]3O[C@H](C)C[C@H](N(C)C)[C@H]3O)[C@@H](C)C[C@@]3(CO3)C(=O)[C@H](C)[C@@H](O)[C@@H](C)[C@@H](C)OC(=O)[C@@H]2C)O[C@@H](C)[C@@H]1O`: the logP came to 1.69. With `CCC1OC(=O)CC(O)C(C)C(OC2OC(C)C(OC3C[C@@](C)(O)C(O)C(C)O3)C(N(C)C)C2O)C(CC=O)CC(C)C(=O)C=CC(C)=CC1COC1OC(C)C(O)C(OC)C1OC` (some centres undefined), the logP worked out at 1.63. For `CC[C@H]1OC(=O)C[C@@H](O)[C@H](C)[C@@H](O[C@@H]2O[C@H](C)[C@@H](O)[C@H](N(C)C)[C@H]2O)[C@@H](CC=O)C[C@@H](C)C(=O)/C=C/C(C)=C/[C@@H]1CO`, the lipophilicity (logP) was found to be 0.99. Molecule `CO[C@@H]1[C@@H](O[C@@H]2O[C@H](C)[C@@H](O[C@H]3C[C@@](C)(O)[C@@H](OC(=O)CC(C)C)[C@H](C)O3)[C@H](N(C)C)[C@H]2O)[C@@H](CC=O)C[C@@H](C)C(=O)/C=C/C2OC2C[C@@H](C)OC(=O)C[C@H]1OC(C)=O` (some centres undefined) yielded a lipophilicity (logP) of 3.04. Still for that read-out and setting: with `CC[C@H]1OC(=O)[C@H](C)[C@@H](O[C@H]2C[C@@](C)(OC)[C@@H](O)[C@H](C)O2)[C@H](C)[C@@H](O[C@@H]2O[C@H](C)C[C@H](N(C)C)[C@H]2O)[C@](C)(O)C[C@@H](C)C(N)[C@H](C)[C@H]2OC(=O)O[C@@]21C` (some centres undefined) the figure was 2.92.

A short description of the next data set: method code SF-AS, from DOI: 10.1248/cpb.17.2558. The note with it: pH 2.0.
The molecule `Cc1ccccc1S(N)(=O)=O` had a logD of 0.84. The same measure, in the same setting: with `Cc1cccc(S(N)(=O)=O)c1` the figure was 0.85; with `NS(=O)(=O)c1ccc([N+](=O)[O-])c(C(F)(F)F)c1`, 1.73. Same read-out and setting: next, `NS(=O)(=O)c1ccc(Cl)c([N+](=O)[O-])c1`: 1.91.

The same data set, now with this note: pH 5.5.
Turning to `Nc1nnc(S(N)(=O)=O)s1`, the logD is -0.9.

The nature of the next data set: method code SF-AS, from DOI: 10.1016/s0020-1693(00)85781-3.
Settings: not given
`CC(C)(C)c1ccc2c(c1)COCCOCCOCCOCCOCc1cc(C(C)(C)C)ccc1COCCOCCOCCOCCOC2` registered a log partition coefficient (logP) of 3.32.

`c1ccc2c(c1)COCCOCCOCCOCCOC2` came in with a logP of 0.7. Same read-out and setting: with `O=C(O)c1ccc2c(c1)COCCOCCOCCOCCOCCOC2` the figure was -0.28. The same measure, in the same setting: with `CC(=O)c1ccc2c(c1)COCCOCCOCCOCCOCCOC2` the figure was -0.05. Still for that read-out and setting: with `c1ccc2c(c1)COCCOCCOCCOCCOCc1ccccc1COCCOCCOCCOCCOC2` the figure was 1.84; with `c1ccc2c(c1)COCCOCCOCCOCCOCCOC2`, 0.15.

Test in the next data set: not given
Settings: not given
This is another data set of the same source.
In the case of `CCCCCCCCOC(=O)COc1ccc(Cl)cc1Cl`, the logP stood at 5.86. The same measure, in the same setting: next, `ClC(Cl)=C(c1ccc(Cl)cc1)c1ccc(Cl)cc1`: 5.89. Turning to `C1CCCCCC2OC2CCCC1` (centres undefined), the log partition coefficient (logP) worked out at 4.7. In the case of `ClC1=C(Cl)C(Cl)(Cl)C(Cl)=C1Cl`, the lipophilicity (logP) stood at 5.04. In turn, `FC(F)(Cl)C(F)(Cl)Cl` returned a log partition coefficient (logP) of 3.16.

A short description of another data set: method code SF-HPLC, from DOI: 10.1016/0731-7085(91)80215-u, PMID: 1821151. As to conditions: pH 7.4.
The molecule `CCC(C(=O)OCc1ccccc1)C(COC(C)=O)c1cncn1C` (centres undefined) displayed a logD of 2.87. On the same count and under the same terms, with `CCC(=O)OCC(c1cncn1C)C(CC)C(=O)OCc1ccccc1` (centres undefined) the figure was 3.3. Still for that read-out and setting: with `CCC(C(=O)OCc1ccccc1)C(COC(=O)c1cccc(Cl)c1)c1cncn1C` (centres undefined) the figure was 5.64; with `CCCCC(=O)OCC(c1cncn1C)C(CC)C(=O)OCc1ccccc1` (centres undefined), 4.43; with `CCC(C(=O)OCc1ccccc1)C(COC(=O)c1ccccc1)c1cncn1C` (centres undefined), 4.57. Take `CCCCC(=O)OCC(c1cncn1C)C(CC)C(=O)OCC1CCCCC1` (centres undefined): the pH-dependent lipophilicity (logD) came out at 5.56.

Test in another data set: not given
Settings: not given
The source holds these as a separate data set.
For `O=C1c2c(O)cccc2C(C(=O)c2ccc(O)c(O)c2)c2cccc(O)c21`, the logP is 2.79. Still for that read-out and setting: with `O=C1c2c(O)cccc2C(C(=O)c2cc(O)c(O)c(O)c2)c2cccc(O)c21` the figure was 2.44; with `O=C1c2c(O)cccc2C(C(=O)c2ccc(O)cc2)c2cccc(O)c21`, 3.11. Still for that read-out and setting: with `O=C1c2c(O)cccc2C(C(=O)c2ccc(OCc3ccccc3)cc2)c2cccc(O)c21` the figure was 4.22; with `O=C1c2c(O)cccc2C(C(=O)c2ccc3c(c2)OCO3)c2cccc(O)c21`, 3.68. Same read-out and setting: next, `O=C1c2c(O)cccc2C(C(=O)c2ccccc2)c2cccc(O)c21`: 3.81.

Another data set can be described thus: method code SF-AS, from DOI: 10.1016/0304-4165(87)90236-4, PMID: 2889474.
Settings: not given
The molecule `C[C@@H]1C[C@H]2OC(=O)[C@@H](C)[C@H]2[C@H](O)[C@]2(C)C(=O)C=C[C@@H]12` showed a log partition coefficient (logP) of 0.53. With `CC1CC2OC(=O)C3(C)C2C(OC3(C)O)C2(C)C(=O)C=CC12` (centres undefined), the logP was 0.3. Still for that read-out and setting: with `C=C1C(=O)O[C@@H]2C[C@@H](C)[C@@H]3C=CC(=O)[C@@]3(C)[C@@H](OC(=O)CCCC(=O)O[C@H]3[C@@H]4C(=C)C(=O)O[C@@H]4C[C@@H](C)[C@@H]4C=CC(=O)[C@]43C)[C@H]12` the figure was 1.37; with `C=C1C(=O)O[C@@H]2C[C@@H](C)[C@@H]3C4CC(=O)[C@]3(C[C@H]12)[C@@]1(C4)C(=O)O[C@@H]2C[C@@H](C)[C@@H]3C=CC(=O)[C@@]3(C)[C@@H](O)[C@@H]21`, 1.66. In turn, `C=C1C(=O)O[C@@H]2C[C@@H](C)[C@@H]3C=CC(=O)[C@@]3(C)[C@@H](OC(=O)CC(=O)O[C@H]3[C@@H]4C(=C)C(=O)O[C@@H]4C[C@@H](C)[C@@H]4C=CC(=O)[C@]43C)[C@H]12` had a logP of 1.33. On the same count and under the same terms, with `CC1=C2[C@@H](C[C@@H](C)[C@@H]3C=CC(=O)[C@@]3(C)[C@H]2O)OC1=O` the figure was 1.13.

A further data set is described as follows: method code SF, from DOI: 10.1021/jm00294a005, PMID: 5000561.
Settings: not given
`CCCCC1CC(C(=O)NC(CC(C)O)C2OC(SC)C(O)C(O)C2O)N(C)C1` (centres undefined): the logP came to 0.56. The same measure, in the same setting: next, `CCC(=O)O[C@H]1[C@H](C)O[C@@H](O[C@H]2[C@H](N(C)C)[C@@H](O)[C@H](O[C@H]3[C@@H](CC=O)C[C@@H](C)[C@@H](O)/C=C/C=C/C[C@@H](C)OC(=O)C[C@@H](O)[C@@H]3OC)O[C@@H]2C)C[C@@]1(C)O`: 1.38; `CCCC(=O)O[C@H]1[C@H](C)O[C@@H](O[C@H]2[C@H](N(C)C)[C@@H](O)[C@H](O[C@H]3[C@@H](CC=O)C[C@@H](C)[C@@H](O)/C=C/C=C/C[C@@H](C)OC(=O)C[C@@H](O)[C@@H]3OC)O[C@@H]2C)C[C@@]1(C)O`: 1.88; `CO[C@@H]1[C@@H](O[C@@H]2O[C@H](C)[C@@H](O[C@H]3C[C@@](C)(O)[C@@H](OC(C)=O)[C@H](C)O3)[C@H](N(C)C)[C@H]2O)[C@@H](CC=O)C[C@@H](C)[C@@H](O)/C=C/C=C/C[C@@H](C)OC(=O)C[C@H]1OC(C)=O`: 0.88.

`CO[C@@H]1[C@@H](O[C@@H]2O[C@H](C)[C@@H](O[C@H]3C[C@@](C)(O)[C@@H](OC(C)=O)[C@H](C)O3)[C@H](N(C)C)[C@H]2O)[C@@H](CC=O)C[C@@H](C)[C@@H](O)/C=C\C=C/C[C@@H](C)OC(=O)C[C@H]1O` came in with a logP of 0.88. On the same count and under the same terms, next, `CCCC(=O)OC1C(C)OC(OC2C(C)OC(OC3C(CC=O)CC(C)C(O)/C=C\C=C\CC(C)OC(=O)CC(OC(C)=O)C3OC)C(O)C2N(C)C)CC1(C)O` (centres undefined): 1.88.

The next data set can be described thus: method code SF-AS, from DOI: 10.1081/jlc-120022394.
Settings: not given
On to `CCOC(=O)C(=Cc1cccc(Cl)c1)NC=O`, for which the logP was 2.51. The same measure, in the same setting: with `CCOC(=O)C(=Cc1ccccc1Cl)NC=O` the figure was 2.41; with `CCOC(=O)C(=CC=Cc1ccccc1)NC=O`, 2.91; with `CCOC(=O)C(=Cc1ccoc1)NC=O`, 2.08. On the same count and under the same terms, next, `CCOC(=O)C(=Cc1ccccc1)NC=O`: 2.48; `CCOC(=O)C(=Cc1ccc2c(c1)OCO2)NC=O`: 1.66.

A short description of a further data set: method code SF-HPLC, from DOI: 10.1016/s0006-2952(00)00420-2, PMID: 10974206.
Settings: not given
`CN(C)CCCNc1c2ccccc2nc2cccc([N+](=O)[O-])c12` showed a logP of 3.8. On to `C[N+](C)([O-])CCCNc1c2ccccc2nc2ccccc12`, for which the logP was 0.4. Still for that read-out and setting: with `C[N+](C)([O-])CCCNc1c2ccccc2nc2cccc([N+](=O)[O-])c12` the figure was 1.4; with `CN(C)CCCNc1c2ccccc2[n+]([O-])c2cccc([N+](=O)[O-])c12`, 3.1. On the same count and under the same terms, next, `CN(C)CCCNc1c2ccccc2nc2ccccc12`: 3.6; `CN(C)CCCNc1c2ccccc2[n+]([O-])c2ccccc12`: 2.5.

A short description of a further data set: method code SF-AS, from DOI: 10.1248/bpb1978.7.120, PMID: 6427444.
Settings: not given
In turn, `CCCOC(=O)N1C2CN3C4=C(C(=O)C(N)=C(C)C4=O)C(COC(N)=O)C3(OC)C21` (centres undefined) showed a logP of 1.51.

`COC12C(COC(N)=O)C3=C(C(=O)C(C)=C(N)C3=O)N1CC1C2N1C(=O)Cc1ccccc1` (centres undefined) displayed a logP of 1.54. In turn, `COC12C(COC(N)=O)C3=C(C(=O)C(C)=C(N)C3=O)N1CC1C2N1C(=O)OCc1ccccc1` (centres undefined) displayed a logP of 2.05. Still for that read-out and setting: with `COC12C(COC(N)=O)C3=C(C(=O)C(C)=C(N)C3=O)N1CC1C2N1C(=O)OC1CCC2=CCC3C(CCC4(C)C(C(C)CCCC(C)C)CCC34)C2(C)CC1` (centres undefined) the figure was 3.88; with `CCCCCCCCCOC(=O)N1[C@H]2[C@@H]1CN1C3=C(C(=O)C(N)=C(C)C3=O)[C@@H](COC(N)=O)[C@@]21OC`, 3.56; with `CCCCCOC(=O)N1C2CN3C4=C(C(=O)C(N)=C(C)C4=O)C(COC(N)=O)C3(OC)C21` (centres undefined), 2.45.

One may read the logP as the decadic logarithm of the partition coefficient of the neutral form, usually between octanol and water. Low values mean a more hydrophilic compound, high ones a more lipophilic compound. As usually defined, the logD is the decadic logarithm of the distribution of all forms, ionised or not, between an organic phase and buffer at a given pH. High values mean a more lipophilic compound, low ones a more hydrophilic compound.
